This is an account of results in publication PMC10930102 (Journal of Enzyme Inhibition and Medicinal Chemistry, 2024).

One assay has as its target T1, ALK (Homo sapiens, UniProt Q9UM73).
T1 construct: purchased Reaction Biology Corporation
Nature of the assay: ALK in vitro enzymatic assay (radioisotope P81 filter-binding, Reaction Biology). It is filed as biochemical. To be noted: 20 μM ATP; ten-dose IC50 mode, duplicate, average.

For a further assay, the target named is T2, HDAC6 (Homo sapiens, UniProt Q9UBN7).
T2 construct: purchased Reaction Biology Corporation; host or cells: baculovirus expression system in SF9 cells
T2 sequence (Q9UBN7 1-1215): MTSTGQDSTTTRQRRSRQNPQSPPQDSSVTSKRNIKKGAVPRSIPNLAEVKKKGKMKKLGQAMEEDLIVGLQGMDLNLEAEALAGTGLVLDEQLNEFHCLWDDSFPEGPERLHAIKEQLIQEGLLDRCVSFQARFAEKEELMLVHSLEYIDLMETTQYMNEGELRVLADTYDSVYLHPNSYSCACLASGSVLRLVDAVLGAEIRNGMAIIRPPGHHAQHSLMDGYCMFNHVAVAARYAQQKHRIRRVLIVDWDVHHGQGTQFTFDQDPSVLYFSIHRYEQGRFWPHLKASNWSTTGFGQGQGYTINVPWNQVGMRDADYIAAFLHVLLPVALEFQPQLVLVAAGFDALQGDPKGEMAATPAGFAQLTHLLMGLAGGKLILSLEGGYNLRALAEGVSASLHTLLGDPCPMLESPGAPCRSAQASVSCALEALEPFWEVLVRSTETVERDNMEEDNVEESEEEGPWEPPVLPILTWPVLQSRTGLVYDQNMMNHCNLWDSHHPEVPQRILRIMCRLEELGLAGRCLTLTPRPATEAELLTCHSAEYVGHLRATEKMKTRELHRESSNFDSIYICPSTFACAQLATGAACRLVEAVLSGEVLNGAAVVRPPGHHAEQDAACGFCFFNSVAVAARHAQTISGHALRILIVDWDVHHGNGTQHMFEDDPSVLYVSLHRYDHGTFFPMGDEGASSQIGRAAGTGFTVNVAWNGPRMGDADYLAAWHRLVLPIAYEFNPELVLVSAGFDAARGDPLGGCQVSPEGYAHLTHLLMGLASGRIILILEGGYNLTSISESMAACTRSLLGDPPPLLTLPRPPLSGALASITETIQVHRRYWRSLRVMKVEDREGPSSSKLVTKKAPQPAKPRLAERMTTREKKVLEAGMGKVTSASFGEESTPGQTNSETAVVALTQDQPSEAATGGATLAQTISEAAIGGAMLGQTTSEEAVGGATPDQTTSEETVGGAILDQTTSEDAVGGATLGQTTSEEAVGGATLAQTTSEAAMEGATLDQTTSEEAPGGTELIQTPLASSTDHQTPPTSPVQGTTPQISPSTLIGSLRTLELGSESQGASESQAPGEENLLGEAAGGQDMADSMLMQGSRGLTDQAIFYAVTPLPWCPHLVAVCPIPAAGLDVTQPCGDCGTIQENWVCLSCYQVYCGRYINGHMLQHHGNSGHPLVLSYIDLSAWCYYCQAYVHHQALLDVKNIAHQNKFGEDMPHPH
In words: HDAC inhibition assay (fluorogenic peptide, Reaction Biology). It is filed as biochemical. Conditions: tested once, ten-dose starting at 30 µM.

A further assay concerns the target T3, HDAC11 (Homo sapiens, UniProt Q96DB2).
T3 construct: purchased Reaction Biology Corporation; host or cells: baculovirus expression system in SF9 cells
T3 sequence (Q96DB2 1-347): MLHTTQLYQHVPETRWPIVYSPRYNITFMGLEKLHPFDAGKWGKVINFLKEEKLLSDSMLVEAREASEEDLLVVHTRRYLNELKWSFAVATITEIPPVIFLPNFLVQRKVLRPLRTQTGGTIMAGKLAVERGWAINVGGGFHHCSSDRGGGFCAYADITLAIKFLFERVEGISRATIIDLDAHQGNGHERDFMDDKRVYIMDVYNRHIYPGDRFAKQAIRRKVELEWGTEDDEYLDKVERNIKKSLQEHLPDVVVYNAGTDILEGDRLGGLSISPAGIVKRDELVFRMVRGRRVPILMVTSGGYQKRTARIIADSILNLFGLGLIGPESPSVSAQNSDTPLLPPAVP
Described as above. To be noted: tested once, ten-dose starting at 30 µM. It is filed as biochemical.

Another assay relates to HepG2. Nature of the assay: SRB antiproliferation assay. It is filed as cell-based. To be noted: Homo sapiens, 48 h, read-out: Antiproliferative activity (IC50) HepG2.
For another assay, the system named is MCF7. In words: SRB antiproliferation assay. The format is cell-based. Conditions: Homo sapiens, 48 h, read-out: Antiproliferative activity (IC50) MCF7. Background: In SRB staining, fixed cells bind dye roughly in proportion to their protein.
In the next assay the test system is U87MG. Nature of the assay: SRB antiproliferation assay. It is filed as cell-based. To be noted: Homo sapiens, U-87 MG, 48 h, read-out: Antiproliferative activity (IC50) U87MG.
The test system of the next assay is H2228. In words: SRB antiproliferation assay. Conditions: Homo sapiens, NCI-H2228, 48 h, ALK-addicted cells, read-out: Antiproliferative activity (IC50) H2228. It is filed as cell-based.
The target in a further assay is T4, IGF1R (Homo sapiens, UniProt P08069).
T4 construct: purchased Reaction Biology Corporation
In words: RTK in vitro enzymatic assay. The format is biochemical. Conditions: 20 μM ATP.

For a further assay, the target named is T5, ALK G1202R (Homo sapiens, UniProt Q9UM73, G1202R).
T5 construct: purchased Reaction Biology Corporation
Nature of the assay: ALK mutant in vitro enzymatic assay. The format is biochemical. To be noted: 20 μM ATP.

The subject of assay [1] is acetylated histone H3, a substrate of class I HDAC. Nature of the assay: Western blot of acetylated histone H3 in H2228 cells. It is filed as cell-based, human. To be noted: 6 h, 3b 2 µM. The text has this: Figure 4. Effect of test compounds on H2228 cells. […] (A) Western blots of phosphorylated tyrosine residue 1640 on ALK as well as acetylated (Ac) α-tubulin and histone H3 with their corresponding total proteins for normalisation. GAPDH was used as a loading control. (B) Quantification of western blotting results using Image J. Error bars indicate ± S.D.E. *p-Value ≤ 0.05, **p-value ≤ 0.01, ***p-value ≤ 0.001.
Treated cells were washed three times with ice-cold phosphate-buffered saline and lysed in lysis buffer containing 100 mM Tris-HCl, 12 mM sodium deoxycholate, 12 mM sodium lauroylsarcosinate, and protease inhibitor cocktail (BioTools). Cells were heated in lysis buffer at 95 °C for 5 min and then the cell membrane was broken up by sonication (Bioruptor). Cellular debris and unbroken cells were removed by centrifugation (12,500 × g for 30 min, 4 °C). Protein concentration was determined using the bicinchoninic acid assay (Thermo). Cell extracts (20 μg) were resolved by 12% sodium dodecyl sulfate-polyacrylamide gel electrophoresis (SDS-PAGE), transferred to PVDF membranes, and probed separately with antibodies for Ac-histone H3, Ac-α-tubulin, histone H3, α-tubulin, HDAC1, HDAC6, HDAC8 and GAPDH. […] Antibody signals were detected using an enhanced chemiluminescence system.
Background: Immunoblotting shows a protein as a band on a membrane.

In the next assay the target is T6, CYP3A4 (Homo sapiens, UniProt P08684).
T6 construct: purchased Reaction Biology Corporation; host or cells: CYP cDNA baculovirus expression systems
Nature of the assay: CYP450 inhibition assay. It is filed as in vitro ADME. Conditions: human recombinant enzyme.

The next assay concerns the target T7, hERG (Homo sapiens, UniProt Q12809).
T7 construct: purchased
In words: hERG binding competition assay (Predictor hERG Tracer Red). To be noted: binding competition with fluorescent tracer.

T7 sequence (Q12809 whole entry): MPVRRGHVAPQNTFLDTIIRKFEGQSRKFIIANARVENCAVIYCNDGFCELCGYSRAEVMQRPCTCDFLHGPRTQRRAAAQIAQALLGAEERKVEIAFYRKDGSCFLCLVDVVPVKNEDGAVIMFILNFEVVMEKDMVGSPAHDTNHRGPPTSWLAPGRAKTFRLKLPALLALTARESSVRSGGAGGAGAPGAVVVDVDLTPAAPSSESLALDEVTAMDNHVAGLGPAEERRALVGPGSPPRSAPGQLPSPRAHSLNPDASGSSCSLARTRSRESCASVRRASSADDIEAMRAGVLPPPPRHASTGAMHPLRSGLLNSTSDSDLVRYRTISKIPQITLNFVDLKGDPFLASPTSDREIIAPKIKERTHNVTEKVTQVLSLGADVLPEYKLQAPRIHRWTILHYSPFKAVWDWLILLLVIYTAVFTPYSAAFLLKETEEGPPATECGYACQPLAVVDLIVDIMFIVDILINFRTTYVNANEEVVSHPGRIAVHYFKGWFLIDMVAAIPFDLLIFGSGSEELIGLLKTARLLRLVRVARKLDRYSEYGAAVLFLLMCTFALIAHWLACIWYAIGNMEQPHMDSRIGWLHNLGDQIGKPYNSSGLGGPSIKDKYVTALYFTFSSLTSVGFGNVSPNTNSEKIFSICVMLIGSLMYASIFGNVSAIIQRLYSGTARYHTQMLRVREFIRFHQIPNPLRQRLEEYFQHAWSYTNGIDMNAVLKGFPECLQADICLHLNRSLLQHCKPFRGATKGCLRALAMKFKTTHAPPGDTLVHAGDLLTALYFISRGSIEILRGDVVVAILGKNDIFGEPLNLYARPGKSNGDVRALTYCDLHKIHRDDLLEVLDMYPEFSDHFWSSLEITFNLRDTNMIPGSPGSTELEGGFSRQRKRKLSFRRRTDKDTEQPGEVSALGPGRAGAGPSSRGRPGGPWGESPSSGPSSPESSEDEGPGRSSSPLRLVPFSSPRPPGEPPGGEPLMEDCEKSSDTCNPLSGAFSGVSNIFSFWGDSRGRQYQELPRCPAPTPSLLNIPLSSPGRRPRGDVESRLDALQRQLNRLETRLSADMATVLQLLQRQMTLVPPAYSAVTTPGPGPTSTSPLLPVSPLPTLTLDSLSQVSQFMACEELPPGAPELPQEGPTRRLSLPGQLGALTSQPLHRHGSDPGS
T6 sequence (P08684 whole entry): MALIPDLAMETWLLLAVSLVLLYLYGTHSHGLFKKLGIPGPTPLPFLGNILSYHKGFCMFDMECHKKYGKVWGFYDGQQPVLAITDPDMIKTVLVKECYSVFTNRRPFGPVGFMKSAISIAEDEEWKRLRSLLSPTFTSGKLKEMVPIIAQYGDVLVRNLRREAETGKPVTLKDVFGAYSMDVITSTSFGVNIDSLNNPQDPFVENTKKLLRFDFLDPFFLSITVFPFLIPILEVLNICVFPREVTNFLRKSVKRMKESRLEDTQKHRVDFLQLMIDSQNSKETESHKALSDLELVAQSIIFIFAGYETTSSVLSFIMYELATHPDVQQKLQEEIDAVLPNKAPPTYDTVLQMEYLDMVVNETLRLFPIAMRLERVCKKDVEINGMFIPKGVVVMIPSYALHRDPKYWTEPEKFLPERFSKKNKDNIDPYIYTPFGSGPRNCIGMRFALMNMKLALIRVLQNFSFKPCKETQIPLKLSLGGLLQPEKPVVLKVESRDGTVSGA
T1 sequence (Q9UM73 19-1620): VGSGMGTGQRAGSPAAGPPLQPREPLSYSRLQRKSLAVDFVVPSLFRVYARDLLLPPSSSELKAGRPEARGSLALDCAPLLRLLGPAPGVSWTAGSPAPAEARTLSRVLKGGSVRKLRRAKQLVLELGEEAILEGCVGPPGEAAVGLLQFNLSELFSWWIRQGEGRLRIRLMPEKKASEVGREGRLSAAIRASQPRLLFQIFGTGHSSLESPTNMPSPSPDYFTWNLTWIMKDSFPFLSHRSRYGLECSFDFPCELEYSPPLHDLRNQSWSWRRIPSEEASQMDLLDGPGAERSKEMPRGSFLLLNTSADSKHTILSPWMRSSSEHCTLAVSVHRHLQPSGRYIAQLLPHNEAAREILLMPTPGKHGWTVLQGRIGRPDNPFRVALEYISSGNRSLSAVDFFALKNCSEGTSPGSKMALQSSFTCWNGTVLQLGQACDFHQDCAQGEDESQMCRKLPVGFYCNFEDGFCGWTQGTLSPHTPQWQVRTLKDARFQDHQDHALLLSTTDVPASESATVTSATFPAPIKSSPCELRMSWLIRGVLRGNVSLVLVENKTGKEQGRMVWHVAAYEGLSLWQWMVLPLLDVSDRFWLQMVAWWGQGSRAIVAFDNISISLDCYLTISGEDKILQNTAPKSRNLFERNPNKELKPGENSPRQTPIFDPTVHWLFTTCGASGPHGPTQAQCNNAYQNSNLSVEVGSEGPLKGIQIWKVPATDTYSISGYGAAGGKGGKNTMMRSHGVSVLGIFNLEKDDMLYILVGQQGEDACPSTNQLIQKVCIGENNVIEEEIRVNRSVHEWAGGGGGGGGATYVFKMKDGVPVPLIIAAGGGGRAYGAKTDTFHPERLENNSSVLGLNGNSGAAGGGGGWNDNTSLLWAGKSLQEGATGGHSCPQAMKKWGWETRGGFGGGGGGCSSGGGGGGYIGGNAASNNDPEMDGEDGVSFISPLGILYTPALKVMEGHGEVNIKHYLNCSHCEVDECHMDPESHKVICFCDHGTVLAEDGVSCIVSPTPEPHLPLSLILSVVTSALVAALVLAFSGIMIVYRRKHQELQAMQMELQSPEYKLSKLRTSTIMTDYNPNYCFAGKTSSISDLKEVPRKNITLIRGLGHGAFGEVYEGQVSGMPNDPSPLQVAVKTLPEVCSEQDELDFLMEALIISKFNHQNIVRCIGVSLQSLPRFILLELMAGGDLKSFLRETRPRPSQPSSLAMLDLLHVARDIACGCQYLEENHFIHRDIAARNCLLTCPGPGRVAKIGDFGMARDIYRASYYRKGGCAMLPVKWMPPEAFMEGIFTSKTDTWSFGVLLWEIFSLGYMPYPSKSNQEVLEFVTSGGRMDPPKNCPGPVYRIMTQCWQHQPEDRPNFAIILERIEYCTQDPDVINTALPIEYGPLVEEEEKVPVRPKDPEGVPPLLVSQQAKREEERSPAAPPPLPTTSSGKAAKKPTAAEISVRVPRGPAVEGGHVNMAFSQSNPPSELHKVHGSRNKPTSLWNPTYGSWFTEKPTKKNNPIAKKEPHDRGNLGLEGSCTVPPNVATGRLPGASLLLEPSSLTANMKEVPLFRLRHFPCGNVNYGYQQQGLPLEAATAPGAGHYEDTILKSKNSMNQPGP
T4 sequence (P08069 31-1367): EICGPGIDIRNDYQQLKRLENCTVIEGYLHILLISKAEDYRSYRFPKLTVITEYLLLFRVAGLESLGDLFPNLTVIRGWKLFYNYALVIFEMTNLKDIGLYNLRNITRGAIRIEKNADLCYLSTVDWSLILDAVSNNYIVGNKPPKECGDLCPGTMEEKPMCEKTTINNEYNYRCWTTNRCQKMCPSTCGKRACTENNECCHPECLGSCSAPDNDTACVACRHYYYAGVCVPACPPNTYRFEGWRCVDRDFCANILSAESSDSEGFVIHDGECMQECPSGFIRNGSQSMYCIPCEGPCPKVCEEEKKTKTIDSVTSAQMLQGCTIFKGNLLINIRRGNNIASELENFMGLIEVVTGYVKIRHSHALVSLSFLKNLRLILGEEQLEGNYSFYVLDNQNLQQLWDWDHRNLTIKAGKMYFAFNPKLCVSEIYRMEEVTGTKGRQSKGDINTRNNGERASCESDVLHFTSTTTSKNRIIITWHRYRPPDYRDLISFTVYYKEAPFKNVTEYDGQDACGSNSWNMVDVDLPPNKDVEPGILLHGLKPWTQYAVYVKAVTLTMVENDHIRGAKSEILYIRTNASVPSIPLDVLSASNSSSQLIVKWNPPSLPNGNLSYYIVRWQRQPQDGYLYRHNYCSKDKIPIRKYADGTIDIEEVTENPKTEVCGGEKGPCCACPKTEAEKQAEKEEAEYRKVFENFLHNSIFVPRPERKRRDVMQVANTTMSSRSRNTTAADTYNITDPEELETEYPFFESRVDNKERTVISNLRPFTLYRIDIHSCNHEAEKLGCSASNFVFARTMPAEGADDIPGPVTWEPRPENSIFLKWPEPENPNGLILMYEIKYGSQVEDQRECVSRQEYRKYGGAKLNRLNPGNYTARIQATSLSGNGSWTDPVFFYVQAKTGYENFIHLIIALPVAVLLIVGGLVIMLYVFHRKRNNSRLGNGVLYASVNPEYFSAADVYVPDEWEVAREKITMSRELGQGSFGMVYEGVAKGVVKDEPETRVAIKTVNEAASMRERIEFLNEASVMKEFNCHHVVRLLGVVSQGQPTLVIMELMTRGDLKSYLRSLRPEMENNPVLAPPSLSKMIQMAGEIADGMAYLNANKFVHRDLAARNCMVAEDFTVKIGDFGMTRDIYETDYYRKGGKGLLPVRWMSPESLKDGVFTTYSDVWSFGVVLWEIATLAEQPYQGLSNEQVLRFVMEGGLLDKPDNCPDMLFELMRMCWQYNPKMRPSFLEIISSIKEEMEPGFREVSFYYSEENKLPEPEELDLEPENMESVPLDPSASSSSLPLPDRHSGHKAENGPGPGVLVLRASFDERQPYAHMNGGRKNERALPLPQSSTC
T5 sequence (Q9UM73 19-1620 G1202R): as the sequence (Q9UM73 19-1620) above, with G1184R counted along it

As a reminder, the IC50 is the midpoint of a concentration-inhibition curve. In the case of `CC(C)NC(=O)C1CCC(n2c(=NC(=O)c3ccccc3)[nH]c3cc(C=CC(=O)NO)ccc32)CC1` [Compound 3b, (E)-N-(5-((E)-3-(Hydroxyamino)-3-oxoprop-1-en-1-yl)-1-((1S,4S)-4-(isopropylcarbamoyl)cyclohexyl)-1H-benzo[d]imidazol-2(3H)-ylidene)benzamide], the IC50 at ALK stood at 16 nM; against HDAC6, 1030 nM; on HDAC11 it was 16600 nM; in the assay on HepG2, 590 ± 90 nM; in the assay on MCF7, 550 ± 10 nM; with U87MG, 620 ± 100 nM. In addition, the IC50 in the assay on H2228 was 440 ± 60 nM; at IGF1R it was 4840 nM; against ALK G1202R it was 51 nM; at CYP3A4, 9370 nM; on hERG, more than 10000 nM. Besides, the “acetylated histone H3 level” value in assay [1] is reported as “slightly increased”. The “IC50 hERG” value on hERG is given as “no inhibitory affect”.
